{"source": "paper PMC8792425", "about": "(Redox Biology, 2022)", "molecular_target": "T1, citrate synthase (CS) (Homo sapiens, UniProt O75390)", "T1 sequence (O75390 28-466)": "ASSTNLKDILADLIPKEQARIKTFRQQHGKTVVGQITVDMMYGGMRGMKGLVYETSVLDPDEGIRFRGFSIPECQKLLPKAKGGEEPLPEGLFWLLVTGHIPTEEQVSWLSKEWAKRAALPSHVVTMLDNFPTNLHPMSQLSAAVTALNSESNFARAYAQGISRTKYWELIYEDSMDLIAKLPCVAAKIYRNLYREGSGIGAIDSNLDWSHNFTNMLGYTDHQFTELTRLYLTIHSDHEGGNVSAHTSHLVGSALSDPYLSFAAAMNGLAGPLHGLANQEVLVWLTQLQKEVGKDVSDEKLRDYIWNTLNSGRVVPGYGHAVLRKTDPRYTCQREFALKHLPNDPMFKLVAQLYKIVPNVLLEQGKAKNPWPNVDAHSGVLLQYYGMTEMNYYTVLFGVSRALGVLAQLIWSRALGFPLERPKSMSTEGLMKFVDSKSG", "test": "DTNB-CoA absorbance at […] nm", "type": "biochemical", "data": [{"smiles": "CC(=O)SCCNC(=O)CCNC(=O)[C@H](O)C(C)(C)COP(=O)(O)OP(=O)(O)OC[C@H]1O[C@@H](n2cnc3c(N)ncnc32)[C@H](O)[C@@H]1OP(=O)(O)O", "note": "[acetyl CoA]", "values": [{"measurement": "DTNB-CoA absorbance at 412 nm", "setting": "with oxaloacetate and DTNB", "result": "oxaloacetate, acetyl CoA, and DTNB were incubated with protein lysates"}]}, {"smiles": "O=C(O)CC(=O)C(=O)O", "note": "[oxaloacetate]", "values": [{"measurement": "DTNB-CoA absorbance at 412 nm", "setting": "with acetyl CoA and DTNB", "result": "oxaloacetate, acetyl CoA, and DTNB were incubated with protein lysates"}]}]}
